# According to US12257246B2, “Composition of 2,4,6-trifluoro-n-[6-(1-methyl-piperidin-4-carbonyl)-pyridin-2-yl[-benzamide” (CoLucid Pharmaceuticals, Inc., priority 2009, dated 2025):
# “Also recorded” adds a separate entry of the source.
# Legend:
# [1] = target: T1, Human 5-HT1F receptor transfected NIH3T3 cells (Homo sapiens, UniProt P30939); assay: Inhibition of forskolin stimulated cAMP formation; type: cell-based
# T1 construct: expressed in transfected cells; host or cells: NIH3T3 cells
# T1 sequence (P30939 1-366): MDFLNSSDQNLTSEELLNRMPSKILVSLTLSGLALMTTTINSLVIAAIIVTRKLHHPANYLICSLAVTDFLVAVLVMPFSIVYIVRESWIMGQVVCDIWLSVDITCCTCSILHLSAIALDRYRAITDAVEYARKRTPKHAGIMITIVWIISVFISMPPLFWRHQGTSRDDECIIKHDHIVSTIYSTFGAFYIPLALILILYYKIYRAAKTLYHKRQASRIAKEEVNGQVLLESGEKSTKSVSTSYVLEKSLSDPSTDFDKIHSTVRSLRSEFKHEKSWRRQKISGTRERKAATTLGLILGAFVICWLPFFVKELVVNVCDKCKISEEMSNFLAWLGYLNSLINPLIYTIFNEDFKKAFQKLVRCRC
# Experimental: As was reported by R. L. Weinshank, et al., WO93/14201, the 5-HT1F receptor is functionally coupled to a G-protein as measured by the ability of serotonin and serotonergic drugs to inhibit forskolin stimulated cAMP production in NIH3T3 cells transfected with the 5-HT1F receptor. Adenylate cyclase activity was determined using standard techniques. A maximal effect is achieved by serotonin. An Emax is determined by dividing the inhibition of a test compound by the maximal effect and determining a percent inhibition. N. Adham, et al., supra; R. L. Weinshank, et al., Proceedings of the National Academy of Sciences (USA), 89:3630-3634, 1992; and the references cited therein.
# Human 5-HT1F receptor transfected NIH3T3 cells (estimated Bmax from one point competition studies=488 fmol/mg of protein) were incubated in DMEM, 5 mM theophylline, 10 mM HEPES (4-[2-hydroxyethyl]-1-piperazineethanesulfonic acid) and 10 μM pargyline for 20 minutes at 37° C., 5% CO2. Drug dose-effect curves were then conducted by adding 6 different final concentrations of drug, followed immediately by the addition of forskolin (10 μM). Subsequently, the cells were incubated for an additional 10 minutes at 37° C., 5% CO2. The medium was aspirated and the reaction was stopped by the addition of 100 mM HCl. […] Radioactivity was quantified using a Packard COBRA Auto Gamma counter, equipped with data reduction software.
# rabbit saphenous vein = settings: concentrations up to 0.1 mM; cited from earlier work
# [2] = test system: neuronal protein extravasation; assay: Protein extravasation assay (trigeminal ganglion stimulation); type: in vivo, rats or guinea pigs; settings: intravenous
# Experimental: Harlan Sprague-Dawley rats (225-325 g) or guinea pigs from Charles River Laboratories (225-325 g) were anesthetized with sodium pentobarbital intraperitoneally (65 mg/kg or 45 mg/kg respectively) and placed in a stereotaxic frame (David Kopf Instruments) with the incisor bar set at −3.5 mm for rats or −4.0 mm for guinea pigs. Following a midline sagital scalp incision, two pairs of bilateral holes were drilled through the skull (6 mm posterially, 2.0 and 4.0 mm laterally in rats; 4 mm posteriorly and 3.2 and 5.2 mm laterally in guinea pigs, all coordinates referenced to bregma). Pairs of stainless steel stimulating electrodes, insulated except at the ends (Rhodes Medical Systems, Inc.), were lowered through the holes in both hemispheres to a depth of 9 mm (rats) or 10.5 mm (guinea pigs) from dura. […]
# A fluorescence microscope (Zeiss) equipped with a grating monchromator and a spectrophotometer was used to quantify the amount of Evans Blue dye in each sample. An excitation wavelength of approximately 535 nm was utilized and the emission intensity at 600 nm was determined. […] This facilitated the computer-controlled movement of the stage with fluorescence measurements at 25 points (500 μm steps) on each dural sample. The mean and standard deviation of the measurements were determined by the computer. […]
# [3] = test system: healthy male and female subjects; assay: Oral safety and tolerability, Study 1 and Study 2; type: in vivo, human; parameters: Subjects with Nausea: dose or concentration left out as unconfirmed
# [4] = Oral pharmacokinetics (solution and tablet), Study 1 and Study 2; type: in vivo, human
# Experimental: Plasma samples were analyzed for Compound I using a validated liquid chromatography with tandem mass spectrometric detection (LC/MS/MS) method. Relative bioavailability of tablet and solution formulations for AUCt, AUC∞, and Cmax were assessed. A linear mixed effects model was fitted to the log-transformed PK parameters (AUCt, AUC∞, and Cmax). Included in the model were treatment, period, and sequence as fixed factors and subjects nested within sequences as a random factor. For the relative bioavailability analysis, the tablet formulation was the test and the solution formulation was the reference. 90% confidence intervals and ratios for the relative mean in-transformed AUCt, AUC∞, and Cmax of the test to reference formulation were calculated.
# [5] = Study 2 Part 1, 200 mg tablet (N = 28)
# [6] = Study 2 Part 1, 200 mg tablet (N = 29)
# [7] = Study 2 Part 2, 50 mg tablet (N = 28)
# [8] = Study 2 Part 2, 400 mg tablet (N = 28)
smiles,measurement,setting,value
"CN1CCC(C(=O)c2cccc(NC(=O)c3c(F)cc(F)cc3F)n2)CC1 [Compound I, 2,4,6-trifluoro-N-[6-(1-methyl-piperidin-4-ylcarbonyl)-pyridin-2-yl]-benzamide]",functional activity in cAMP assay,[1],agonist of the 5-HT1F receptor
same,constriction of rabbit saphenous vein,rabbit saphenous vein,did not constrict
same,inhibition of neuronal protein extravasation,[2],significantly inhibit neuronal protein extravasation
same,Subjects with Blurred vision,[3]; [5],0 n
same,Subjects with Feeling hot,[3]; [5],0 n
same,Subjects with Palpitations,[3]; [5],0 n
same,Subjects with Blurred vision,[3]; [6],0 n
same,Subjects with Diarrhea,[3]; [6],0 n
same,Subjects with Feeling hot,[3]; [6],0 n
same,Subjects with Headache,[3]; [6],0 n
same,Subjects with Palpitations,[3]; [6],0 n
same,Subjects with Blurred vision,[3]; [7],0 n
same,Subjects with Diarrhea,[3]; [7],0 n
same,Subjects with Feeling hot,[3]; [7],0 n
same,Subjects with Headache,[3]; [7],0 n
same,Subjects with Diarrhea,[3]; [8],0 n
same,Subjects with Palpitations,[3]; [8],0 n
same,Subjects with Nausea,"[3]; Study 2 Part 2, tablet (N = 28)",0 n
same,"fatigue, females",[3]; after the 400 mg oral dose,50%
same,"fatigue, males",[3]; after the 400 mg oral dose,21%
same,tolerability,[3]; all oral doses of solution and tablet,well tolerated
same,tolerability,[3]; doses above 400 mg administered orally,not well tolerated
same,Tmax,"[4]; both sexes, human, plasma, 50 to 400 mg tablet formulation, oral, read-out: Median tmax",1.5 to 2.5 h
same,oral bioavailability,"[4]; human, in vivo, po",orally bioavailable
same,bioavailability,"[4]; male, human, plasma, 200 mg oral dose, read-out: relative bioavailability of the tablet to the solution",100%
same,dose linearity / proportionality of oral pharmacokinetics,"[4]; oral 25 to 400 mg, males and females",dose linearity; also recorded: dose proportionality
same,oral dose achieving plasma levels previously associated with efficacy by the i.v. route,[4]; solution and tablet,≥ 50 mg
